Test results as given in PubChem BioAssay (NCI).
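Growth conditions: 96-well plates. Treatment: test compound, 48 hours, 5 concentrations. Analysis: linear interpolation between bracketing concentrations; unreached endpoints set to highest concentration. The concentration for full growth arrest is given as TGI.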

Tests used:
Assay in all cases: NCI-60 cell line screen, 48 h
786-0 renal = tested on: 786-0 renal
A498 renal = tested on: A498 renal
A549 NSCLC = tested on: A549 NSCLC
ACHN renal = tested on: ACHN renal
BT-549 breast = tested on: BT-549 breast
CAKI-1 renal = tested on: CAKI-1 renal
CCRF-CEM leukemia = tested on: CCRF-CEM leukemia
COLO 205 colon = tested on: COLO 205 colon
DU-145 prostate = tested on: DU-145 prostate
EKVX NSCLC = tested on: EKVX NSCLC
HCC-2998 colon = tested on: HCC-2998 colon
HCT-116 colon = tested on: HCT-116 colon
HCT-15 colon = tested on: HCT-15 colon
HL-60(TB) leukemia = tested on: HL-60(TB) leukemia
HOP-62 NSCLC = tested on: HOP-62 NSCLC
HOP-92 NSCLC = tested on: HOP-92 NSCLC
HS 578T breast = tested on: HS 578T breast
HT29 colon = tested on: HT29 colon
IGROV1 ovarian = tested on: IGROV1 ovarian
K-562 leukemia = tested on: K-562 leukemia
KM12 colon = tested on: KM12 colon
LOX IMVI melanoma = tested on: LOX IMVI melanoma
M14 melanoma = tested on: M14 melanoma
MALME-3M melanoma = tested on: MALME-3M melanoma
MCF7 breast = tested on: MCF7 breast
MDA-MB-435 = tested on: MDA-MB-435
MDA-N = tested on: MDA-N
MOLT-4 leukemia = tested on: MOLT-4 leukemia
NCI-H226 lung = tested on: NCI-H226 lung
NCI-H23 lung = tested on: NCI-H23 lung
NCI-H460 lung = tested on: NCI-H460 lung
NCI-H522 lung = tested on: NCI-H522 lung
NCI/ADR-RES ovarian = tested on: NCI/ADR-RES ovarian
OVCAR-3 ovarian = tested on: OVCAR-3 ovarian
OVCAR-4 ovarian = tested on: OVCAR-4 ovarian
OVCAR-5 ovarian = tested on: OVCAR-5 ovarian
OVCAR-8 ovarian = tested on: OVCAR-8 ovarian
PC-3 prostate = tested on: PC-3 prostate
RPMI-8226 leukemia = tested on: RPMI-8226 leukemia
RXF 393 renal = tested on: RXF 393 renal
SF-268 CNS = tested on: SF-268 CNS
SF-295 CNS = tested on: SF-295 CNS
SF-539 CNS = tested on: SF-539 CNS
SK-MEL-2 melanoma = tested on: SK-MEL-2 melanoma
SK-MEL-28 melanoma = tested on: SK-MEL-28 melanoma
SK-MEL-5 melanoma = tested on: SK-MEL-5 melanoma
SN12C renal = tested on: SN12C renal
SNB-19 CNS = tested on: SNB-19 CNS
SNB-75 CNS = tested on: SNB-75 CNS
SR leukemia = tested on: SR leukemia
SW-620 colon = tested on: SW-620 colon
T-47D breast = tested on: T-47D breast
TK-10 renal = tested on: TK-10 renal
U251 CNS = tested on: U251 CNS
UACC-257 melanoma = tested on: UACC-257 melanoma
UACC-62 melanoma = tested on: UACC-62 melanoma
UO-31 renal = tested on: UO-31 renal
SK-OV-3 ovarian = tested on: SK-OV-3 ovarian

Measured: TGI

C/C=N\n1c(C)n[nH]c1=O
not listed: SK-OV-3 ovarian
> 100 µM: all other assays above

CC(=O)N=C1C=C(NC(C)=O)C(=O)c2ccccc21
19.9 µM: SK-OV-3 ovarian
6.27 µM: HT29 colon
3.47 µM: SN12C renal
3.79 µM: COLO 205 colon
3.46 µM: MCF7 breast
3.62 µM: HCT-116 colon | MALME-3M melanoma
2.3 µM: NCI-H23 lung
7.62 µM: CCRF-CEM leukemia
6.04 µM: OVCAR-8 ovarian
56.5 µM: HS 578T breast
3.19 µM: LOX IMVI melanoma | SK-MEL-5 melanoma
3.18 µM: DU-145 prostate
3.12 µM: ACHN renal
12.5 µM: EKVX NSCLC
4.13 µM: RPMI-8226 leukemia
4.26 µM: UO-31 renal
3.06 µM: NCI-H522 lung
5.46 µM: RXF 393 renal
10.2 µM: SF-268 CNS
10.7 µM: SK-MEL-2 melanoma | U251 CNS
7.59 µM: NCI/ADR-RES ovarian
19.1 µM: A549 NSCLC
3.38 µM: MDA-N
28.6 µM: A498 renal
17.5 µM: KM12 colon
8.04 µM: SK-MEL-28 melanoma
28.1 µM: NCI-H460 lung
7.9 µM: SNB-19 CNS
4.85 µM: BT-549 breast
9.13 µM: HCT-15 colon
3.15 µM: HOP-92 NSCLC
6.39 µM: SF-539 CNS
7.01 µM: K-562 leukemia
4.05 µM: T-47D breast
3.59 µM: IGROV1 ovarian
3.09 µM: OVCAR-4 ovarian
40.4 µM: HOP-62 NSCLC
12.3 µM: TK-10 renal
6.84 µM: HL-60(TB) leukemia
7.49 µM: PC-3 prostate
3.33 µM: M14 melanoma | UACC-257 melanoma
5.17 µM: MOLT-4 leukemia
6.18 µM: UACC-62 melanoma
3.43 µM: CAKI-1 renal
3.48 µM: MDA-MB-435
3.37 µM: 786-0 renal
4.06 µM: SR leukemia
4.58 µM: OVCAR-5 ovarian
3.86 µM: SW-620 colon
8.88 µM: SF-295 CNS
8.66 µM: SNB-75 CNS
34.3 µM: HCC-2998 colon
14.9 µM: NCI-H226 lung

O=C(O)C1CCCN1C(=O)c1cc(Cl)ccn1 (stereo unspecified)
not listed: SK-OV-3 ovarian
> 100 µM: all other assays above
